Publication PMC6225185 (2018)

Columns and labels:
[1] = system: [d-(TTGGGGT)]4 (DNA, G4) TTGGGGT; assay: DSC; conditions: 100 mM KCl, 10 mM K2HPO4; 1 mM EDTA, pH 7.0; 50 µM quadruplex, D/N = 4.0 (200 µM daunomycin); third transition
[2] = system: [d-(TTGGGGT)]4 (DNA, G4) TTGGGGT; assay: 1H NMR titration (T7H6 and T7CH3 shifts); conditions: 100 mM KCl, 10 mM K2HPO4; 1 mM EDTA, pH 7.0, 25 °C, 90% H2O/10% D2O; site 1 of 2 (G6-T7); apparent
[3] = system: [d-(TTGGGGT)]4 immobilized (SPR) (DNA, G4) TTGGGGT; assay: SPR steady state; conditions: 100 mM KCl; 10 mM HEPES, 3 mM EDTA, 0.005% P20, pH 7.4, 25 °C; dominant mode

ΔTm3 [1]: 14.4 ± 1.1 °C
Kb [2]: ~ 1.8–2.3 × 10^4 M^−1
Kb [3]: ~ 4.1 × 10^3 M^−1
SMILES: COc1cccc2c1C(=O)c1c(O)c3c(c(O)c1C2=O)C[C@@](O)(C(C)=O)C[C@@H]3O[C@H]1C[C@H](N)[C@H](O)[C@H](C)O1
